Measured values: the supplement of paper PMC12076712

Assays:
Test in all cases: pIC50, kinobeads binding competition
ACVR1 = biological target: T1, ACVR1 (UniProt Q04771)
T1 sequence (whole entry): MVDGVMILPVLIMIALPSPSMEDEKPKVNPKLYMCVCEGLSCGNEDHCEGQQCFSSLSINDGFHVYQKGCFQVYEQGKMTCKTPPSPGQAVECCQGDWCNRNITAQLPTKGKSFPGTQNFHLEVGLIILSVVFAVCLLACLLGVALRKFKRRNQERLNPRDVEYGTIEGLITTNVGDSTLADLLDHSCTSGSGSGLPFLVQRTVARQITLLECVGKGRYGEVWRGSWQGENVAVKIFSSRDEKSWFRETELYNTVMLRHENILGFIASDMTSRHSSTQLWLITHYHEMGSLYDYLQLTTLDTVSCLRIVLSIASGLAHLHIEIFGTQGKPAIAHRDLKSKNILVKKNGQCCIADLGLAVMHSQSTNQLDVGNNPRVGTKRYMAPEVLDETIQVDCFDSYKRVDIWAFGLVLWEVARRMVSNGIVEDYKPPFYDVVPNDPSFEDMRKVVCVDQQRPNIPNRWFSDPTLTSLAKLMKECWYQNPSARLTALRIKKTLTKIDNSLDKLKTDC
Summary of the method: (§1)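 Either living Jurkat cells (60 min at 37 °C, then lysis) or lysates (60 min at 4 °C) were treated with nine compound concentrations from a top of 30 μM, in 1:4 steps for cells and 1:5 steps for lysates. The lysates were from Jurkat cells or a 1:1:1:1 mix of HEK293, K-562, HepG2 and placenta. Kinobeads-bound proteins were digested and quantified by TMT10 LC-MS/MS. pIC50 was calculated by logistic dose-response fitting (R drc package) of fold changes relative to vehicle, in biological duplicates.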

CAMK2G = CAMK2G (UniProt Q13555)
Summary of the method: as §1

DDR1 = DDR1 (UniProt Q08345)
Summary of the method: as §1

EPHA4 = EPHA4 (UniProt P54764); settings: cell material: Lysate mix
Summary of the method: as §1

MARK2 = MARK2 (UniProt Q7KZI7)
Summary of the method: as §1

PKN3 = PKN3 (UniProt Q6P5Z2); settings: cell material: Lysate mix
Summary of the method: as §1

SRC = SRC (UniProt P12931)
Summary of the method: as §1

STK39 = STK39 (UniProt Q9UEW8)
Summary of the method: as §1

UniProt O14965 = biological target: T2, UniProt O14965
T2 sequence (whole entry): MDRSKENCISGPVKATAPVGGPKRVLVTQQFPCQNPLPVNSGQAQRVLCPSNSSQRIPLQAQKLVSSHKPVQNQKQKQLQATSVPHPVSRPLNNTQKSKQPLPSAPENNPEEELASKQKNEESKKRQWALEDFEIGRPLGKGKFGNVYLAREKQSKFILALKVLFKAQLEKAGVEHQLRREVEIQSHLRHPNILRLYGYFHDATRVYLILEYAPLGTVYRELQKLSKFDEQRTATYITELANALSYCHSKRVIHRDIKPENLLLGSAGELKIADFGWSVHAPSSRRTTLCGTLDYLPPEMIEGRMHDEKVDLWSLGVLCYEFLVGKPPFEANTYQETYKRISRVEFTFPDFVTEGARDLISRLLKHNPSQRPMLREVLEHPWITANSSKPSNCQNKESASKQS
Summary of the method: as §1

UniProt P25098 = biological target: T3, UniProt P25098
T3 sequence (whole entry): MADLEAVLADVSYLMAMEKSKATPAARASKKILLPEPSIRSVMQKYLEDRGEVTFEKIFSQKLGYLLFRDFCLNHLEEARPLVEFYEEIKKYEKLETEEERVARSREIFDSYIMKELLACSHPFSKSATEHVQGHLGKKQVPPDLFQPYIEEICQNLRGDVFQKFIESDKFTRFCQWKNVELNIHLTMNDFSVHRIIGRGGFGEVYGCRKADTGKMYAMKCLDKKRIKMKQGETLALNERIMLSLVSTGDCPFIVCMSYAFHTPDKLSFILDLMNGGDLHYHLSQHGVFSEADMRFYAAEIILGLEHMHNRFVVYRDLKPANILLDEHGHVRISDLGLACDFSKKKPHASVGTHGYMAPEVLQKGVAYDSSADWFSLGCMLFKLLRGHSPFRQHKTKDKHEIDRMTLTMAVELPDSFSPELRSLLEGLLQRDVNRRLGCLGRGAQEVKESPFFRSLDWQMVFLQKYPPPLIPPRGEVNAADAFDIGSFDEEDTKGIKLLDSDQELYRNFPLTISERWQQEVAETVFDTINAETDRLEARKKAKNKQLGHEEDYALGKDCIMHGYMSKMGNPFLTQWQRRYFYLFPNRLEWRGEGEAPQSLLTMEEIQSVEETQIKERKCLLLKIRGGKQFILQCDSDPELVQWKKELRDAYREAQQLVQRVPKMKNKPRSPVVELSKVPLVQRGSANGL
Summary of the method: as §1

UniProt P45983 = biological target: UniProt P45983
Summary of the method: as §1

UniProt P46734 = biological target: T4, UniProt P46734
T4 sequence (whole entry): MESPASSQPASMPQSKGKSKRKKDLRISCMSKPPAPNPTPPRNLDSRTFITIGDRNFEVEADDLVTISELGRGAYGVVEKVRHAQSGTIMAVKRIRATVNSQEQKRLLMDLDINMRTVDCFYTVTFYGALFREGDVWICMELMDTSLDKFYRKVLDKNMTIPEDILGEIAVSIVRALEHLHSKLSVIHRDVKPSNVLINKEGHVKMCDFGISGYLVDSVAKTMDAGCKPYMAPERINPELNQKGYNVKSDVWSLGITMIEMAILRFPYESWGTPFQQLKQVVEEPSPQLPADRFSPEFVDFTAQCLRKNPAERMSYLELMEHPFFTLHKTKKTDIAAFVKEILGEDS
Summary of the method: as §1

UniProt P50613 = biological target: UniProt P50613
Summary of the method: as §1

UniProt Q14289 = biological target: UniProt Q14289
Summary of the method: as §1

UniProt Q16659 = biological target: UniProt Q16659
Summary of the method: as §1

Chain of UniProt Q16659 (Q16659 whole entry): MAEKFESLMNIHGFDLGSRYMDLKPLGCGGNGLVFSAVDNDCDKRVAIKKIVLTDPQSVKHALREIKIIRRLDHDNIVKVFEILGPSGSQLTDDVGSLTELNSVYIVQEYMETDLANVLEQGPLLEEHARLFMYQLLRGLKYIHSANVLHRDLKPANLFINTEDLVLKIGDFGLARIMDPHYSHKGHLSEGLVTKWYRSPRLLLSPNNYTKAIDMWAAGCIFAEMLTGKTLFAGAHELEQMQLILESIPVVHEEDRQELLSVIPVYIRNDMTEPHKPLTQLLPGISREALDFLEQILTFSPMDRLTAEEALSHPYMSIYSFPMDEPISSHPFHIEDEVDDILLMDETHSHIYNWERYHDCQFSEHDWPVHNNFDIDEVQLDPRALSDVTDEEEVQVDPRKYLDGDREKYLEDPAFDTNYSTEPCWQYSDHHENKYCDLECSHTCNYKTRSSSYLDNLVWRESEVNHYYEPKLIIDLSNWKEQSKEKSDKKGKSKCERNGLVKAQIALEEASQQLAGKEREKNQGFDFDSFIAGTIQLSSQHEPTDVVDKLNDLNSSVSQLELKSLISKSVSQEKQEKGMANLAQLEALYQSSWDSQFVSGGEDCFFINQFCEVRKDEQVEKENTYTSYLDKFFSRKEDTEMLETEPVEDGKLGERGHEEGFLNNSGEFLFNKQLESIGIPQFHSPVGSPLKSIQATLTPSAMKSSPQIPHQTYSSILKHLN
Chain of MARK2 (Q7KZI7 whole entry): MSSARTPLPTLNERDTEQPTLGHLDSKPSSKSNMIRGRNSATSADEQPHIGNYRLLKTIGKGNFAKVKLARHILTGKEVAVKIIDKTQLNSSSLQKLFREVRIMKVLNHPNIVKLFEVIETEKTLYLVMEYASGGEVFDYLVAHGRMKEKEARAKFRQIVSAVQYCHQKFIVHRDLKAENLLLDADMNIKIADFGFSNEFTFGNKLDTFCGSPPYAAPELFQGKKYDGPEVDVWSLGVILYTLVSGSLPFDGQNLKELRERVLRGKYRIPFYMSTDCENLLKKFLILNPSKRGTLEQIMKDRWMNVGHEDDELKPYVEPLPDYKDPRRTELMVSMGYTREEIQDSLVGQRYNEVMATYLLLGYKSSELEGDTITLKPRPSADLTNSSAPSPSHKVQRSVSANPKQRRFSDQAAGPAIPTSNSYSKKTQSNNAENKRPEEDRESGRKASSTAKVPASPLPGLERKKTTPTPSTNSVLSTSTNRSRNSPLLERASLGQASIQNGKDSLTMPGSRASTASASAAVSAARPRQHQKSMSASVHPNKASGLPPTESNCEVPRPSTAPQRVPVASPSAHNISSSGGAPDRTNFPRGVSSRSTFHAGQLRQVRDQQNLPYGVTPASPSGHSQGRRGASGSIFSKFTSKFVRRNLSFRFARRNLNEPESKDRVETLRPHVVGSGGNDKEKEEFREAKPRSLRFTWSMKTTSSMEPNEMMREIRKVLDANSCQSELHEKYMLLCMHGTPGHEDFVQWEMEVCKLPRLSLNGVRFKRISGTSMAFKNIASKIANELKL
Chain of UniProt Q14289 (Q14289 whole entry, looked up): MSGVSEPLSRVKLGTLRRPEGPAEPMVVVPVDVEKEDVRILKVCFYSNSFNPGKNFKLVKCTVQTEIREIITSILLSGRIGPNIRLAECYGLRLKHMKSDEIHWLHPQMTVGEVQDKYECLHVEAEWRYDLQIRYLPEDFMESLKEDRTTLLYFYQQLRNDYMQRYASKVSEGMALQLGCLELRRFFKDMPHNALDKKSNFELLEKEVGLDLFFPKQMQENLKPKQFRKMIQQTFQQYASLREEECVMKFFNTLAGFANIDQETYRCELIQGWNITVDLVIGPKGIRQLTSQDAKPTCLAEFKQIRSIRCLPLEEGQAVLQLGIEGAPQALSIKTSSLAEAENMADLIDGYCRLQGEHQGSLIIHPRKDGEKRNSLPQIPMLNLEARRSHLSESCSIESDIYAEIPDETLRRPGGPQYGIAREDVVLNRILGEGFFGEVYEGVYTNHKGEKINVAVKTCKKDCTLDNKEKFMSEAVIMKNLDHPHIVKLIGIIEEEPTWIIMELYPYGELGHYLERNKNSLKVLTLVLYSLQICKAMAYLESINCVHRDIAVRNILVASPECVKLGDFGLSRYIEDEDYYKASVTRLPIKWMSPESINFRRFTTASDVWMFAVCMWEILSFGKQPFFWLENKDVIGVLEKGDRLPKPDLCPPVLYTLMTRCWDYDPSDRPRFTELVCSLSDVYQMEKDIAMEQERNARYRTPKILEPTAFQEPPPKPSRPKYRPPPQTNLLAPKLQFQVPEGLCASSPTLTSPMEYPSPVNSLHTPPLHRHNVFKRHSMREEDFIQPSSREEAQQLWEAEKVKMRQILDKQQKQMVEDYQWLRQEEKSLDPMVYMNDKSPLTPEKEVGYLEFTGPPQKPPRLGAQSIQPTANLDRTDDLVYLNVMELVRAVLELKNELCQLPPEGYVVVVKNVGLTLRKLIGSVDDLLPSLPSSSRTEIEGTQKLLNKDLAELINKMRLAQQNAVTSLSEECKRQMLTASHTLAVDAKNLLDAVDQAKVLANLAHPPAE
Chain of DDR1 (Q08345 whole entry): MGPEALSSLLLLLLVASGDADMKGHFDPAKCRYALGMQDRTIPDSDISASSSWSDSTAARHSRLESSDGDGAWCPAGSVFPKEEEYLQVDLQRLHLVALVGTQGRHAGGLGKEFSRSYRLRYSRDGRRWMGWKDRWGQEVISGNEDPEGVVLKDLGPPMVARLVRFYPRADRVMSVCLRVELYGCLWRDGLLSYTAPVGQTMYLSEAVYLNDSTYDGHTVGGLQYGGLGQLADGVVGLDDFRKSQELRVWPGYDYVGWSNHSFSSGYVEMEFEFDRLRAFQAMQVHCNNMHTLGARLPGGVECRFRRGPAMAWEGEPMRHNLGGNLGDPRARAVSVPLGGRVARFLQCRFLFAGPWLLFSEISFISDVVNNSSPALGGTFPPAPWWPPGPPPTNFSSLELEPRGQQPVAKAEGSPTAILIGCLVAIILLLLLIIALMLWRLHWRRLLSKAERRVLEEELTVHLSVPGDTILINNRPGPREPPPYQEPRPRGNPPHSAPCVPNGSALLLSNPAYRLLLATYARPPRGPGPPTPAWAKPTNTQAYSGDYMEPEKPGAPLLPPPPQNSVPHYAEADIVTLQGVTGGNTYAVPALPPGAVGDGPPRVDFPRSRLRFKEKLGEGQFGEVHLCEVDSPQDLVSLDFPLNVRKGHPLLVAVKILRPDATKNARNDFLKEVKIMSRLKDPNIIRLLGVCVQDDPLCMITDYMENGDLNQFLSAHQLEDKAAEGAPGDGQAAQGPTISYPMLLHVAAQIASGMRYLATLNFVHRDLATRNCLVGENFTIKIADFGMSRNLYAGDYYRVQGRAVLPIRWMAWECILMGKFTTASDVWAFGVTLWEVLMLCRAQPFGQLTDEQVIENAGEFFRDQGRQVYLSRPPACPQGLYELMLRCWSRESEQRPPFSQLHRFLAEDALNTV
Chain of CAMK2G (Q13555 whole entry): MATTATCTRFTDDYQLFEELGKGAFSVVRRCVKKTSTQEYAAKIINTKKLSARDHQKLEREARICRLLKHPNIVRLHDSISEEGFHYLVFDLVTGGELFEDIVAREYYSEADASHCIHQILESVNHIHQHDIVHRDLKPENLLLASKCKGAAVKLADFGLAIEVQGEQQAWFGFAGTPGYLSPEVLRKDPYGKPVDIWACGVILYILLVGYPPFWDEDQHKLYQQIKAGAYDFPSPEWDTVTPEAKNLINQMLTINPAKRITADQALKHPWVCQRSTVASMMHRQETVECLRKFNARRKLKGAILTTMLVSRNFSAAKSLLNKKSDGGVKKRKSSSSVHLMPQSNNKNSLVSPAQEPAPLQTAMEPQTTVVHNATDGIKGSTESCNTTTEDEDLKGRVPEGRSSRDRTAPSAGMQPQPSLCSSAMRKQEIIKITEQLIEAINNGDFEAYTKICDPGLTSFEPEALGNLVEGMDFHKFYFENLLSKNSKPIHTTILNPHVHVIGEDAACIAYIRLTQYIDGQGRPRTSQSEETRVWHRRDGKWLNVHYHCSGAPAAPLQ
Chain of UniProt P45983 (P45983 whole entry): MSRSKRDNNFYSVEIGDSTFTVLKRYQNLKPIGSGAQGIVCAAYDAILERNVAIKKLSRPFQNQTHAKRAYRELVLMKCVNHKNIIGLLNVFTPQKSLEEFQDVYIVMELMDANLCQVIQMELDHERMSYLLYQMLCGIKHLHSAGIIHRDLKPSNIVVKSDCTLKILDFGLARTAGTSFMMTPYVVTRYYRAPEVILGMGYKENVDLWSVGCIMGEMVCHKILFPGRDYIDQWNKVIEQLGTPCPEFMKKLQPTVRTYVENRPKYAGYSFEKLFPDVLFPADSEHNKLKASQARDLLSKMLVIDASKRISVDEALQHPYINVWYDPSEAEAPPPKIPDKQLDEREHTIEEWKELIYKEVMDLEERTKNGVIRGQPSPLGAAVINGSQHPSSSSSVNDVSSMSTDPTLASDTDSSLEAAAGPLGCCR
Chain of UniProt P50613 (P50613 whole entry): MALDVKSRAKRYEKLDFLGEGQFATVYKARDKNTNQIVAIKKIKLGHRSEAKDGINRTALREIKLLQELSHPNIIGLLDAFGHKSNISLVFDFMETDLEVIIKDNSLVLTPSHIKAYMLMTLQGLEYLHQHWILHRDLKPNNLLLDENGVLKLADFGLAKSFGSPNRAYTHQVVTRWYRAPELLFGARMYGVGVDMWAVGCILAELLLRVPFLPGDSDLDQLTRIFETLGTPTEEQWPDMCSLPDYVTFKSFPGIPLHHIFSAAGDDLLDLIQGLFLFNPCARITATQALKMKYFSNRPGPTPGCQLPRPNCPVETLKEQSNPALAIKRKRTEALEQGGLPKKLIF

pIC50 (UniProt P25098; cell material: Lysate mix) | Structure (SMILES) | pIC50 (ACVR1; cell material: Lysate mix) | pIC50 (CAMK2G; cell material: Lysate mix) | pIC50 (DDR1; cell material: Lysate mix) | pIC50 (EPHA4) | pIC50 (MARK2; cell material: Lysate mix) | pIC50 (PKN3) | pIC50 (SRC; cell material: Lysate mix) | pIC50 (STK39; cell material: Lysate mix) | pIC50 (UniProt O14965; cell material: Lysate mix) | pIC50 (UniProt P45983; cell material: Lysate mix) | pIC50 (UniProt P46734; cell material: Lysate mix) | pIC50 (UniProt P50613; cell material: Lysate mix) | pIC50 (UniProt Q14289; cell material: Lysate mix) | pIC50 (UniProt Q16659; cell material: Lysate mix) | pIC50 (ACVR1; cell material: Jurkat cells) | pIC50 (ACVR1; cell material: Jurkat lysate) | pIC50 (CAMK2G; cell material: Jurkat cells) | pIC50 (CAMK2G; cell material: Jurkat lysate) | pIC50 (DDR1; cell material: Jurkat cells) | pIC50 (DDR1; cell material: Jurkat lysate) | pIC50 (MARK2; cell material: Jurkat cells) | pIC50 (MARK2; cell material: Jurkat lysate) | pIC50 (SRC; cell material: Jurkat cells) | pIC50 (SRC; cell material: Jurkat lysate) | pIC50 (STK39; cell material: Jurkat cells) | pIC50 (STK39; cell material: Jurkat lysate) | pIC50 (UniProt O14965; cell material: Jurkat cells) | pIC50 (UniProt O14965; cell material: Jurkat lysate) | pIC50 (UniProt P25098; cell material: Jurkat cells) | pIC50 (UniProt P25098; cell material: Jurkat lysate) | pIC50 (UniProt P45983; cell material: Jurkat cells) | pIC50 (UniProt P45983; cell material: Jurkat lysate) | pIC50 (UniProt P46734; cell material: Jurkat cells) | pIC50 (UniProt P50613; cell material: Jurkat cells) | pIC50 (UniProt P50613; cell material: Jurkat lysate) | pIC50 (UniProt Q14289; cell material: Jurkat cells) | pIC50 (UniProt Q14289; cell material: Jurkat lysate) | pIC50 (UniProt Q16659; cell material: Jurkat cells) | pIC50 (UniProt Q16659; cell material: Jurkat lysate)
< 4.52 | C#CCNC(=O)c1cc(Nc2cc(C)[nH]n2)nc(N2CCN(Cc3ccc(S(=O)(=O)F)cc3)CC2)n1 | < 4.52 | < 4.52 | < 4.52 | < 4.52 | < 4.52 | < 4.52 | 5.89 | 5.73 | 6.73 | 4.6 | < 4.52 | 5.14 | < 4.52 | < 4.52 |  |  |  |  |  |  |  |  |  |  |  |  |  |  |  |  |  |  |  |  |  |  |  |  | 
 | C#CCNC(=O)c1cc(Nc2cc(C3CC3)[nH]n2)nc(N2CCN(Cc3ccc(S(=O)(=O)F)cc3)CC2)n1 | 5.14 | < 4.52 | < 4.52 | < 4.52 | < 4.52 | < 4.52 | 6.24 | 5.92 | 7.06 | 4.72 | 4.87 | 6.35 | < 4.52 | < 4.52 | 5.78 | 4.66 | 5.13 | < 4.52 | 5.54 | < 4.52 | 5.92 | < 4.52 | 6.41 | 5.68 | 6.04 | 5.28 | 7.04 | 6.25 | 5.69 | < 4.52 | 5.34 | < 4.52 | 5.54 | 6.47 | 5.78 | 5.98 | < 4.52 | < 4.52 | < 4.52
